Consider one compound from ChEMBL document CHEMBL6177973, “A Novel Compound 3a-M1, from Metabolites of Sinomenine Derivative 3a, Exerts Potent Anti-Aplastic Anemia Activity via IP3R/ORAI-Mediated CTL Ferroptosis” (J Med Chem, 2025).

What all share (type): functional, cell-based
Assay [1] has as its system RAW264.7. The assay is described as follows: Cytotoxicity against mouse RAW264.7 cells assessed as inhibition of cell viability incubated for 72 hrs by CCK8 assay. The following applies: RAW264.7, 72 h. For orientation: Tetrazolium assays rely on reduction of a dye to a coloured formazan, in cell work by metabolically active cells.
For assay [2], the system named is NRK-52E. Nature of the assay: Cytotoxicity against rat NRK-52E cells assessed as inhibition of cell viability incubated for 72 hrs by CCK8 assay.
Assay [3] has as its system THP-1. The assay is described as follows: Cytotoxicity against human THP-1 cells assessed as inhibition of cell viability incubated for 72 hrs by CCK8 assay. The following applies: THP-1, 72 h.
Assay [4] deals with HepG2. Nature of the assay: Cytotoxicity against human HepG2 cells assessed as inhibition of cell viability incubated for 72 hrs by CCK8 assay. Particulars: HepG2, 72 h.
The subject of assay [5] is IEC-6. Nature of the assay: Cytotoxicity against rat IEC-6 cells assessed as inhibition of cell viability incubated for 72 hrs by CCK8 assay. Particulars: IEC-6, 72 h.
Assay [6] relates to HL-60. Nature of the assay: Cytotoxicity against human HL-60 cells assessed as inhibition of cell viability incubated for 72 hrs by CCK8 assay. The following applies: HL-60, 72 h.
Assay [7] relates to CTLL-2. Nature of the assay: Cytotoxicity against mouse CTLL-2 cells assessed as inhibition of cell viability incubated for 72 hrs by CCK8 assay. The following applies: CTLL-2, 72 h.

By IC50 is commonly meant the concentration needed to halve the response being measured. On to `C/C=C/C[C@@H](C)[C@@H](O)[C@H]1C(=O)N[C@@H](CC)C(=O)N(C)CC(=O)N(C)[C@@H](CC(C)C)C(=O)N[C@@H](C(C)C)C(=O)N(C)[C@@H](CC(C)C)C(=O)N[C@@H](C)C(=O)N[C@H](C)C(=O)N(C)[C@@H](CC(C)C)C(=O)N(C)[C@@H](CC(C)C)C(=O)N(C)[C@@H](C(C)C)C(=O)N1C` [CYCLOSPORINE], for which the IC50 in assay [1] stood at 14.2 µM; in assay [2] it was 35.4 µM; in assay [3], 4.36 µM; in assay [4] it was 11.7 µM; in assay [5], 9.14 µM; in assay [6], 8.14 µM. For the same compound, the 50% inhibitory concentration (IC50) in assay [7] amounted to 2.72 µM.
